Values quoted from earlier work as cited in US8952000B2, “Cholesterol absorption inhibitor and omega 3 fatty acids for the reduction of cholesterol and for the prevention or reduction of cardiovascular, cardiac and vascular events” (Pivotal Therapeutics Inc., priority 2011, dated 2015).

In the case of `O=C1[C@H](CC[C@H](O)c2ccc(F)cc2)[C@@H](c2ccc(O)cc2)N1c1ccc(F)cc1` [Ezetimibe, (3R,4S)-1-(p-fluorophenyl)-3-[(3S)-3-(p-fluorophenyl)-3-hydroxypropyl]-4-(p-hydroxyphenyl)-2-azetidinone], the “solubility in ethanol, methanol, and acetone” value (ethanol, methanol, acetone) is given as “freely to very soluble” and the solubility in water (water) is given as “practically insoluble”.
